Data: patent US20110053933A1, “HYDROXYQUINOXALINECARBOXAMIDE DERIVATIVE” (DAIICHI SANKYO COMPANY, LIMITED, priority 2008, published 2011)

Test system: γ-glutamyl carboxylation reaction (human Gas6 in Gas6-HEK293 cells)
Assay: Inhibitory action on γ-glutamyl carboxylation reaction (secreted γ-glutamyl carboxylated Gas6 by ELISA)
Format: cell-based
Details: vitamin K2 100 nM, exposure 18 to 20 hours, ELISA absorbance at 620 nm, read-out: IC50 (50% inhibitory concentration for the γ-glutamyl carboxylation reaction)
Experimental: Measurement of Inhibitory Action on γ-Glutamyl Carboxylation Reaction
Cells were used that expressed Gas6 excreted outside the cells when subjected to γ-glutamyl carboxylation, and inhibitory action on γ-glutamyl carboxylation reaction was assessed by measuring the secreted amount of extracellular Gas6 by ELISA method.
(A) Preparation for Assay Plate Containing Solid-Phase Anti-Human Gas6 Antibody
Goat anti-human Gas6 antibody (R&D Systems, Inc.) was diluted to 1 μg/ml with Dulbecco's phosphate-buffered saline, and 40 μl aliquots thereof were dispensed into each well of a 384-well microplate. After immobilizing the antibody to the solid phase by allowing it to stand at 4° C. overnight or at room temperature for 2 hours or more, each well was washed three times with wash buffer (10 mM Tris-HCl pH 7.4, 150 mM sodium chloride, 0.05% Tween20). After removing the supernatant, 80 μl aliquots of a 1% aqueous solution of Block Ace (Dainippon Sumitomo Pharma) were dispensed into each well and allowed to react at room temperature for 1 hour or more.
(B) Exposure of Test Compounds to Cells Stably Expressing Human Gas6
Cells that stably express human Gas6 (Gas6-HEK293), which were prepared by inserting human Gas6 gene (inserted between SalI and NotI within multiple cloning sites of pCIneo expression vector) into HEK293 cells, were grown and sub-cultured using Dulbecco's modified Eagle's medium (DMEM) containing 10% fetal calf serum (FCS). On the day before ELISA measurement, the Gas6-HEK293 cells were detached with trypsin-EDTA, dispersed in DMEM containing 10% FCS, and disseminated into each well of a 384-well, collagen type I-coated plate (Becton-Dickinson) in 30 μl aliquots containing 1.0×10^4 cells each, followed by culturing for 3 to 4 hours at 5% CO2 and 37° C. 30 μl aliquots of DMEM containing test compound solutions, prepared at various concentrations by dissolving in DMSO, and vitamin K2 at 0.1% and 100 nM, respectively (indicating final concentrations in both cases) were added to each well followed by additionally culturing for 18 to 20 hours.
(C) Quantification of γ-Glutamyl Carboxylated Gas6 by ELISA and Calculation of 50% Inhibitory Concentrations of γ-Glutamyl Carboxylation Reaction
After removing the 1% Block Ace aqueous solution from the preliminarily prepared assay plates containing solid phase anti-human Gas6 antibody, the culture supernatant of Gas6-HEK293 cells exposed to the test compounds was collected and 40 μl aliquots were dispensed into each well followed by allowing to react at room temperature for 2 hours (Step 1). The culture supernatant was removed and each well was washed three times with wash buffer. Thereafter, the same washing procedure was carried out between Steps 2 and 3 and Steps 3 and 4. Subsequently, 40 μl aliquots of mouse anti-human […] antibody (American Diagnostica inc.), adjusted to 0.5 μg/ml with immunoreaction buffer (100 mM Tris-HCl pH 7.4, 0.05% Tween20, 0.1% Block Ace), were dispensed into each well and allowed to react at room temperature for 1 hour (Step 2). Next, 40 μl aliquots of alkaline phosphatase-conjugated anti-mouse IgG antibody adjusted to 1.0 μg/ml with immunoreaction buffer were dispensed into each well and allowed to react at room temperature for 1 hour (Step 3). 40 μl aliquots of BluePhos Microwell (KPL) were dispensed into each well, and after incubating at room temperature for 10 minutes (Step 4), 20 μl aliquots of 5% EDTA were added to each well to stop the color development reaction, followed by measurement of absorbance at 620 nm (Step 5). […]

Work on `CC(C)[C@H](NC(=O)c1nc2ccccc2nc1O)C(=O)N1CCC(Oc2ncc(C(F)(F)F)cn2)CC1` [Example 94, 3-Hydroxy-N-{(1S)-2-methyl-1-[(4-{[5-(trifluoromethyl)pyrimidin-2-yl]oxy}piperidin-1-yl)carbonyl]propyl}quinoxaline-2-carboxamide] yielded an IC50 of 2.7 nM.

`CC(C)[C@H](NC(=O)c1nc2ccccc2nc1O)C(=O)N1CCC(Oc2ncc(N3CCCCC3)cn2)CC1` [Example 96, 3-Hydroxy-N-[(1S)-2-methyl-1-({4-[(5-piperidin-1-ylpyrimidin-2-yl)oxy]piperidin-1-yl}carbonyl)propyl]quinoxaline-2-carboxamide] gave an IC50 of 9.6 nM.

Molecule `CC(C)[C@H](NC(=O)c1nc2ccccc2nc1O)C(=O)N1CCC(Oc2cnc(N3CCCCC3)nc2)CC1` [Example 97, 3-Hydroxy-N-[(1S)-2-methyl-1-({4-[(2-piperidin-1-ylpyrimidin-5-yl)oxy]piperidin-1-yl}carbonyl)propyl]quinoxaline-2-carboxamide] has an IC50 of 4.5 nM.

`CC(C)[C@H](NC(=O)c1nc2ccccc2nc1O)C(=O)N1CCC(C(=O)c2ccc(F)cc2F)CC1` [Example 98, N-[(1S)-1-{[4-(2,4-Difluorobenzoyl)piperidin-1-yl]carbonyl}-2-methylpropyl]-3-hydroxyquinoxaline-2-carboxamide] was tested, and the IC50 was 3.5 nM.

Work on `CC(C)[C@H](NC(=O)c1nc2ccccc2nc1O)C(=O)N1CCC(C(O)c2ccc(F)cc2F)CC1` (stereo partly drawn) [Example 99, N-[(1S)-1-({4-[(2,4-Difluorophenyl)(hydroxy)methyl]piperidin-1-yl}carbonyl)-2-methylpropyl]-3-hydroxyquinoxaline-2-carboxamide] yielded an IC50 of 4.9 nM.

`CC(C)[C@H](NC(=O)c1nc2ccccc2nc1O)C(=O)N1CCC(Oc2ccc(C(F)(F)F)nn2)CC1` [Example 100, 3-Hydroxy-N-{(1S)-2-methyl-1-[(4-{[6-(trifluoromethyl)pyridazin-3-yl]oxy}piperidin-1-yl)carbonyl]propyl}quinoxaline-2-carboxamide] gave an IC50 of 10.4 nM.
